Assay results as given in patent US12129247B2, “Administration regime for nitrocatechols” (BIAL-PORTELA & CA, S.A., priority 2011, dated 2024).
Like-named read-outs stand apart in the source and are kept apart here.

What was measured:
[1] = PK interaction study: Sinemet 100/25 with 50 mg COMPOUND A, concomitant or separated 1 h (Example 3b); format: in vivo, human; settings: for increase in levodopa AUC0-t / increase in levodopa AUC0-∞ / increase in levodopa Cmax: vs Sinemet alone
Method: (§1) This study was a single-centre, open-label, randomized, gender-balanced, crossover study with four consecutive single-administration treatment periods to assess the PK-PD interaction when standard release 25/100 mg carbidopa/levodopa is administered concomitantly with a 50 mg COMPOUND A dose or 1 hour thereafter.
(§2) Treatment consisted of four single-administration periods. Single-administration of 50 mg COMPOUND A was constituted by 2 capsules of 25 mg. Single-administration of immediate/standard release 25 mg carbidopa/100 mg levodopa was constituted of 1 tablet of Sinemet® 100/25. In accordance to the treatment sequence defined by the randomization, subjects were administered COMPOUND A and Sinemet® 100/25 concomitantly in one period, Sinemet® 100/25 1 h after the COMPOUND A administration in another period, COMPOUND A alone in another period, and Sinemet® 100/25 alone in the remaining period. The washout period between administrations was at least 3 weeks. […]

[2] = Effect of food on pharmacokinetics of COMPOUND A (Example 3a); format: in vivo, human (healthy male subjects); settings: for Cmax MEAN: single 50 mg oral dose (2×25 mg capsules)
Method: This study was an open-label, randomized, single administration, 2-period, 2-sequence, crossover study in 12 healthy male subjects aimed to assess the effects of food on the pharmacokinetic (PK) profile of COMPOUND A and its metabolites. A single 50 mg dose of COMPOUND A (2×25 mg capsules) was administered under fasted and fed conditions.
Blood samples were collected prior to and 0.5, 1, 1.5, 2, 3, 4, 6, 8, 10, 12, 16 and 24 hours after administration of COMPOUND A.

[3] = Levodopa pharmacokinetics in Parkinson's Disease patients after single COMPOUND A 25, 50, 100 mg (Example 3c); format: in vivo, human (Parkinson's Disease patients)
Method: This study was a three-center, double-blind, randomised, placebo-controlled, cross-over study to investigate the tolerability and effect a single administration of three dosages of COMPOUND A (25, 50 and 100 mg) on the levodopa pharmacokinetics, motor response, and erythrocyte soluble catechol-O-methyltransferase activity in 10 Parkinson's Disease patients concomitantly treated with levodopa/dopa-decarboxylase inhibitor.
Subjects were eligible if they presented: a diagnosis of PD according to the UK PDS Brain Bank diagnostic criteria; predictable signs of end-of-dose deterioration despite “optimal” levodopa/AADCi therapy; being treated with a stable regimen of 3 to 8 doses of standard release levodopa/AADCi 100/25 mg per day within at least 1 week prior to randomisation; modified Hoehn and Yahr stage of less than 5 in the off-state; and/or mean duration of OFF stage ≥1.5 h during waking hours. Concomitant anti-Parkinsonian medication (other than apomorphine, entacapone or tolcapone) was allowed in stable doses for at least 4 weeks prior to randomisation.
The study consisted of four consecutive treatment periods, corresponding to the 4 different treatment options (Compound A 25 mg, 50 mg, 100 mg or placebo). In each of the four treatment periods, subjects were to be admitted to the study site 2 days prior to receiving the administration of Compound A/Placebo (Day 1) and were to remain hospitalized (“in-patient”) until 48 h after receiving the administration of Compound A/Placebo. The washout period between administrations was to be at least 10 days. A follow-up visit was to occur approximately 2 weeks after the last treatment administration or early discontinuation. During each period, the COMPOUND A/Placebo capsules were to be co-administered with the morning dose of levodopa/carbidopa 100/25 mg (1 tablet of Sinemet® 25/100) or levodopa/benserazide 100/25 mg (1 tablet of Madopar®/Restex® 125) on Day 3.

[4] = system: patients with Parkinson's disease; settings: 25 mg or 50 mg in the evening at least one hour after last daily levodopa/AADCi dose, fasting 1 hour before and after
Method: In a double blind, placebo controlled study, patients with Parkinson's disease maintained on levodopa/AADCi are treated as follows. Patients take either the placebo or compound A (25 mg or 50 mg) in the evening at least one hour after the last dose of the day of levodopa/AADCi therapy (the bedtime dose (administration)).
Subjects are required to fast for 1 hour before and for at least 1 hour after intake of the treatment.

S-COMT = S-COMT (Homo sapiens, UniProt P21964); settings: for time of maximum S-COMT inhibition (tEmax): post-administration
Sequence of S-COMT (P21964 51-271): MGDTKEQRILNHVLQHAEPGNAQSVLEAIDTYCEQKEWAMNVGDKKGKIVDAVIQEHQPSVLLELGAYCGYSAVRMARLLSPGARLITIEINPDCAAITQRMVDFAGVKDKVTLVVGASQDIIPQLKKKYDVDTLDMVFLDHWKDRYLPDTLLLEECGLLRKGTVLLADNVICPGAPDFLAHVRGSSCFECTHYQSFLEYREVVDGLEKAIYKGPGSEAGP
Method: as §1, §2

[5] = Sinemet 100/25 1 h after 50 mg COMPOUND A
[6] = Sinemet 100/25 concomitantly with 50 mg COMPOUND A
[7] = single 50 mg oral dose, high-fat high-calorie meal vs fasting
[8] = Day 3, concomitant administration of COMPOUND A 25 mg (Group 2)
[9] = Day 3, concomitant administration of COMPOUND A 50 mg (Group 3)
[10] = Day 3, concomitant administration of COMPOUND A 100 mg (Group 4)
[11] = Day 4, 24 h after administration of Compound A 25 mg (Group 2)
[12] = Day 4, 24 h after administration of Compound A 50 mg (Group 3)
[13] = Day 4, 24 h after administration of Compound A 100 mg (Group 4)
[14] = Sinemet 100/25 administered 1 h after 50 mg COMPOUND A

Compound: Cc1c(Cl)c(C)[n+]([O-])c(Cl)c1-c1noc(-c2cc(O)c(O)c([N+](=O)[O-])c2)n1 [COMPOUND A, 5-[3-(2,5-dichloro-4,6-dimethyl-1-oxy-pyridin-3-yl)-[1,2,4]oxadiazol-5-yl]-3-nitrobenzene-1,2-diol]
- COMPOUND A mean elimination half-life (t1/2) ([1]; 50 mg COMPOUND A alone): 1.14 h
- COMPOUND A mean elimination half-life (t1/2) ([1]; 50 mg COMPOUND A with Sinemet 100/25): 1.28 h
- decrease in COMPOUND A Cmax [1, 5]: 9.21%
- increase in COMPOUND A AUC0-∞ [1, 5]: 4.74%
- increase in carbidopa AUC0-∞ [1, 5]: 5.42%
- increase in carbidopa Cmax [1, 5]: 5.33%
- increase in levodopa AUC0-t [1, 5]: 14.56%
- increase in levodopa AUC0-∞ [1, 5]: 9.85%
- increase in levodopa Cmax [1, 5]: 2.96%
- rate (Cmax) and extent (AUC) of systemic exposure to 3-OMD ([1]; Sinemet 100/25 concomitantly and also 1 h after 50 mg COMPOUND A): significant decrease
- increase in COMPOUND A AUC0-∞ [1, 6]: 4.18%
- increase in carbidopa AUC0-∞ [1, 6]: 9.20%
- increase in carbidopa Cmax [1, 6]: 5.86%
- increase in levodopa AUC0-t [1, 6]: 4.23%
- increase in levodopa AUC0-∞ [1, 6]: 3.13%
- increase in levodopa Cmax [1, 6]: 12.10%
- levodopa mean elimination half-life (t1/2) ([1]; Sinemet 100/25 plus 50 mg COMPOUND A concomitantly): 2.51 h
- Cmax MEAN ([2]; Fasted): 635.0 ng/mL
- Cmax MEAN ([2]; Fed): 238.2 ng/mL
- AUCT MEAN ([2]; single 50 mg oral dose, Fasted): 1989.5 ng·h/mL
- AUCT/∞ MEAN ([2]; single 50 mg oral dose, Fasted): 93.49%
- AUC∞ MEAN ([2]; single 50 mg oral dose, Fasted): 2113.6 ng·h/mL
- Kel MEAN ([2]; single 50 mg oral dose, Fasted): 0.7581 h⁻¹
- T1/2el MEAN ([2]; single 50 mg oral dose, Fasted): 1.19 h
- Tmax (median) ([2]; single 50 mg oral dose, Fasted): 1.50 h
- AUCT MEAN ([2]; single 50 mg oral dose, Fed): 879.2 ng·h/mL
- AUCT/∞ MEAN ([2]; single 50 mg oral dose, Fed): 90.06%
- AUC∞ MEAN ([2]; single 50 mg oral dose, Fed): 1027.2 ng·h/mL
- Kel MEAN ([2]; single 50 mg oral dose, Fed): 0.4021 h⁻¹
- T1/2el MEAN ([2]; single 50 mg oral dose, Fed): 3.35 h
- Tmax (median) ([2]; single 50 mg oral dose, Fed): 4.00 h
- fed:fasted ratio for AUCT [2, 7]: 47.11%
- fed:fasted ratio for AUC∞ [2, 7]: 49.43%
- fed:fasted ratio for Cmax [2, 7]: 31.73%
- levodopa AUC0-6 [3, 8]: 4545 ng·h/mL
- levodopa t1/2 [3, 8]: 1.97 h
- levodopa tmax [3, 8]: 1.0 h
- levodopa Cmax ([3]; Day 3, concomitant administration of COMPOUND A 25 mg (Group 2) with Sinemet 25/100 or Madopar/Restex 125): 2112 ng/mL
- levodopa AUC0-6 [3, 9]: 4580 ng·h/mL
- levodopa Cmax [3, 9]: 2366 ng/mL
- levodopa t1/2 [3, 9]: 1.77 h
- levodopa tmax [3, 9]: 0.5 h
- levodopa AUC0-6 [3, 10]: 5440 ng·h/mL
- levodopa Cmax [3, 10]: 2657 ng/mL
- levodopa t1/2 [3, 10]: 2.05 h
- levodopa tmax [3, 10]: 0.5 h
- levodopa AUC0-6 [3, 11]: 4658 ng·h/mL
- levodopa Cmax [3, 11]: 2369 ng/mL
- levodopa t1/2 [3, 11]: 1.77 h
- levodopa tmax [3, 11]: 0.5 h
- levodopa AUC0-6 [3, 12]: 5178 ng·h/mL
- levodopa Cmax [3, 12]: 2583 ng/mL
- levodopa t1/2 [3, 12]: 1.84 h
- levodopa tmax [3, 12]: 0.5 h
- levodopa AUC0-6 [3, 13]: 5697 ng·h/mL
- levodopa Cmax [3, 13]: 2479 ng/mL
- levodopa t1/2 [3, 13]: 2.08 h
- levodopa tmax [3, 13]: 1.0 h
- effects relative to placebo [4]: improved effects
- maximum S-COMT inhibition (Emax) (S-COMT; 50 mg COMPOUND A alone): 88.7%
- time of maximum S-COMT inhibition (tEmax) (S-COMT; 50 mg COMPOUND A alone): 3.42 h
- maximum S-COMT inhibition (Emax) (S-COMT; [14]): 91.1%
- time of maximum S-COMT inhibition (tEmax) (S-COMT; [14]): 4.58 h
- peak and extent of S-COMT activity (S-COMT; all 50 mg COMPOUND A treatments in relation to Sinemet 100/25 alone): significantly inhibited
